Like-named read-outs stand apart in the source and are kept apart here.
What was measured:
Caco-2 cell = test system: Caco-2 cell; set-up: method as in Yu et al. (2017); conditions: Caco-2 cell culture model; ref Yu et al. (2017); cited from earlier work
[1] = Absorption characteristics of emodin in rat intestinal segments (Ussing chamber)
From the text: (§1) The four intestinal segments including duodenum, jejunum, ileum, and colon from anesthetized rats were immediately removed by surgery and washed with KRB solution. Each section of the intestinal segments was then placed in cold (on ice), bubbled (O2:CO2 95:5) KRB buffer. The four intestinal segments were then cut into 2 cm pieces, respectively, and serosas were removed by blunt dissection. Peyer’s patches were excluded from the experiment by visually identified. The stripped tissues were mounted in chambers with exposed surface area of 0.49 cm^2. Temperature of the chambers was maintained at 37 ± 0.5°C. Each of the half-cells in the chambers was filled with 5 mL fresh KRB buffer (pH 6.5). Tissue viability was continuously controlled by potential difference (PD). Tissue with electrical values less than 2 mV was refused ([Moazed and Hiebert, 2007]; [Heinen et al., 2013]).
In this study, the effects of the three efflux transporters on emodin intestinal absorption were investigated. Meanwhile, the influence of emodin on intestinal P-gp, MRP2, and MRP3 functions were also discussed. Solutions with three concentrations (low, middle, and high) of emodin were filled in the mucosal or serosal compartment to measure the bidirectional transport characteristic. […] In the emodin impact experiments, digoxin, pravastatin, and teniposide were employed as P-gp, MRP2, and MRP3 substrates. Changes of the bidirectional transport characteristic were measured before and after adding emodin to the mucosal side. […]
(§2) The quantifications of the compounds were performed by the TSQ Quantum Ultra Triple Quadrupole LC-MS/MS system from Thermo Fisher Scientific. […]
(§3) The Q (accumulative quantity), Papp (apparent permeability), Er (efflux ratio), Pr (Papp ratio), and Err (Er ratio) across the excited rat intestinal segments in the Ussing chamber were calculated using the following equations ([Li et al., 2012]; [Huang et al., 2016]): […]

P-gp [2] = experiment: Emodin transport in jejunum in the presence of P-gp inhibitor verapamil (Ussing chamber); conditions: rat jejunum, emodin 9.25 μM, verapamil 220 μM on mucosal side
From the text: as §1, with “Tissue viability was continuously controlled by potential difference (PD). Tissue with electrical values less than 2 mV was refused ([Moazed and Hiebert, 2007]; [Heinen et al., 2013]).” left out
(§4) In this study, the effects of the three efflux transporters on emodin intestinal absorption were investigated. […] Changes of the bidirectional transport characteristic were measured before and after adding emodin to the mucosal side. […]
as §2, §3

MRP2 = MRP2 (Rattus norvegicus, UniProt Q63120); experiment: Emodin transport in jejunum in the presence of MRP2 inhibitor MK571 (Ussing chamber); conditions: MK571 186 μM on mucosal side
From the text: as §1, with “Tissue viability was continuously controlled by potential difference (PD). Tissue with electrical values less than 2 mV was refused ([Moazed and Hiebert, 2007]; [Heinen et al., 2013]).” left out
as §4, §2, §3

MRP3 [3] = target: T1, MRP3 (Rattus norvegicus, UniProt O88563); experiment: Emodin transport in jejunum in the presence of MRP3 inhibitor benzbromarone (Ussing chamber); type: in vitro ADME
T1 construct: intestinal segments including duodenum, jejunum, ileum, and colon from anesthetized rats were immediately removed by surgery; from tissue; host or cells: stripped rat intestine (jejunum and ileum in validation; jejunum for the emodin studies)
From the text: as §1, with “Tissue viability was continuously controlled by potential difference (PD). Tissue with electrical values less than 2 mV was refused ([Moazed and Hiebert, 2007]; [Heinen et al., 2013]).” left out
as §4, §2, §3

P-gp [4] = experiment: Influence of emodin on P-gp function: digoxin bidirectional transport in the presence of emodin (Ussing chamber); type: in vitro ADME; conditions: rat jejunum, emodin 185, 370, 740 μM, digoxin as substrate
From the text: as §1
(§5) In this study, the effects of the three efflux transporters on emodin intestinal absorption were investigated. Meanwhile, the influence of emodin on intestinal P-gp, MRP2, and MRP3 functions were also discussed. Solutions with three concentrations (low, middle, and high) of emodin were filled in the mucosal or serosal compartment to measure the bidirectional transport characteristic. […] In the emodin impact experiments, digoxin, pravastatin, and teniposide were employed as P-gp, MRP2, and MRP3 substrates. Changes of the bidirectional transport characteristic were measured before and after adding emodin to the mucosal side.
(§6) Frozen samples were adequately vortexed after thawing at the room temperature; 10 μL suitable IS solution was added to 200 μL samples; 200 μL methanol was added after a thorough vortex mixing for 30 s. The mixtures were then vortexed for 30 s and centrifuged at 15,000 rpm for 30 min. Finally, 5 μL of supernatant was injected into the LC-MS/MS system.
(§7) The quantifications of the compounds were performed by the TSQ Quantum Ultra Triple Quadrupole LC-MS/MS system from Thermo Fisher Scientific. Chromatography was carried out using an Agilent Poroshell 120 SB-C18 (2.7 μm, 2.1 mm × 100 mm) column with a Phenomenex AFO-8497 C18 pre-column, operating at 30°C. Adaptive gradient elution methods were applied for the analytes. The flow rate of the mobile phase was kept at 0.2 mL min^-1. Flow was directed to the ion spray interface. All measurements were carried out in negative ESI mode. Ion spray voltage was -2500 V. Vaporizer and capillary temperatures were set at 250 and 350°C, respectively. Auto sampler temperature was set at 10°C. Sheath gas and aux gas were set at 30 and 15 Arb, respectively. […] Peak integrations and calibrations were carried out using LC Quan 2.5.2 software from Thermo Fisher Scientific.
as §3
(§8) where Cn (nM) is the concentration of the drug at the time point (n), Q (nM) is the accumulated absorption amount, A is the exposed surface area of the intestine (0.49 cm^2), dQ/dt (nM⋅s^-1) is the amount of the drug transported, and C0 (nM) is the initial concentration of the test drug. Experiments were performed in batches, so control groups were set as one for each batch.

MRP3 [5] = target: T1, MRP3; experiment: Influence of emodin on MRP3 function: teniposide bidirectional transport in the presence of emodin (Ussing chamber); type: in vitro ADME; conditions: rat jejunum; for Papp at 60 μM: rat
From the text: as §1, §5, §6, §7, §3, §8

P-glycoprotein (P-gp) = test system: P-glycoprotein (P-gp); set-up: method as in Teng et al., 2007, 2012; Liu et al., 2012; conditions: ref Teng et al., 2007, 2012, Liu et al.; cited from earlier work
[6] = test system: multidrug-resistant associated protein 2 (MRP2); set-up: method as in Teng et al., 2007, 2012; Liu et al., 2012; conditions: ref Teng et al., 2007, 2012, Liu et al.; cited from earlier work
MRP3 [7] = target: T1, MRP3; experiment: Ussing chamber bidirectional transport, model validation for MRP3 (teniposide substrate, benzbromarone inhibitor); type: in vitro ADME; conditions: rat
From the text: as §1
Digoxin, pravastatin, and teniposide were employed as the test substrates of P-gp, MRP2, and MRP3. […] The experiments were started after 30 min equilibration time, by changing the KRB buffer on both sides; 5 mL KRB solution with different test compounds was filled in the mucosal or serosal compartment; meanwhile, equal volume fresh buffer was added to the other compartment. […] The bidirectional transport studies with specific inhibitors were assessed to validate this model whether or not suitable for P-gp, MRP2, and MRP3 studies. Samples were stored at –80°C until analysis ([Deusser et al., 2013]).
as §6, §7, §3, §8

[8] = set-up: method as in Di et al. (2015); conditions: ref Di et al. (2015); cited from earlier work

T1 sequence (O88563 whole entry): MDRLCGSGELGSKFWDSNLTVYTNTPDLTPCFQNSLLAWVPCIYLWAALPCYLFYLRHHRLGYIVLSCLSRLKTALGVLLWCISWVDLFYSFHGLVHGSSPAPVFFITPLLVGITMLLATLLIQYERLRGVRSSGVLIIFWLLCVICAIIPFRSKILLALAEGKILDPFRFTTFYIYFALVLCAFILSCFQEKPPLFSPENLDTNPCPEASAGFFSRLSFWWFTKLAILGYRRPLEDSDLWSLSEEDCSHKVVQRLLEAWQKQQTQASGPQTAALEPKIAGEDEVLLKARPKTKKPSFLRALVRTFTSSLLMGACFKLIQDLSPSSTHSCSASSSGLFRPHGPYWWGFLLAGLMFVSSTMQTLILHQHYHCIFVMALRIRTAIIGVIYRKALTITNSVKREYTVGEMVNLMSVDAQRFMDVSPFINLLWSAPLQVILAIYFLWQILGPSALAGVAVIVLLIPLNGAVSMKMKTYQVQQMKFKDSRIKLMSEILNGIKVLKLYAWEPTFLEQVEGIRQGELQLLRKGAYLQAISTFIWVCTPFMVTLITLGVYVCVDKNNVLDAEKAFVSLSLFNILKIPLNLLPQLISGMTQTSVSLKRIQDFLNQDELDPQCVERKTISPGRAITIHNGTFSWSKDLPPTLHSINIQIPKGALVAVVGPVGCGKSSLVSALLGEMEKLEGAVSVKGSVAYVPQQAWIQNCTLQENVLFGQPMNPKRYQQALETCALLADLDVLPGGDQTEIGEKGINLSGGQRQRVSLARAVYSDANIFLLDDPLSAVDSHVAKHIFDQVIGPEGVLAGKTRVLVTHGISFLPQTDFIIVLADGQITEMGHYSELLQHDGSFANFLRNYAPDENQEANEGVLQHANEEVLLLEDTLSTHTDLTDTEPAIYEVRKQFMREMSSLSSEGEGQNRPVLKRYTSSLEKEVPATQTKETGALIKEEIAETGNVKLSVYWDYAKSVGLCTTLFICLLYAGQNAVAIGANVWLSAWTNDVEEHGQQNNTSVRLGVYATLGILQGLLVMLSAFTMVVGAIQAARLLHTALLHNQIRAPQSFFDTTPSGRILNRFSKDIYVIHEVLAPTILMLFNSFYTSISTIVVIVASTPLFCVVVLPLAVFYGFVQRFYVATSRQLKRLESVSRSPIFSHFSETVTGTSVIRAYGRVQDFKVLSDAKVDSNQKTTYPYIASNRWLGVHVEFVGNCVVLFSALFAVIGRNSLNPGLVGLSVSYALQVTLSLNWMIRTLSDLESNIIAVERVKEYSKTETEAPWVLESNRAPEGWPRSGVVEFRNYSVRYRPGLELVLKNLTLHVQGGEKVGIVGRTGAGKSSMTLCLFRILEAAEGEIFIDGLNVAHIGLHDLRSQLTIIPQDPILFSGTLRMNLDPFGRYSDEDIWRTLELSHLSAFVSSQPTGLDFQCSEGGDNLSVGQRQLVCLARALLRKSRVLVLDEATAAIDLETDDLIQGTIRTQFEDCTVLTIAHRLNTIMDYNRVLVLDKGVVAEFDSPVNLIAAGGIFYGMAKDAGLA
Chain of MRP2 (Q63120 whole entry, the tested form may be a part): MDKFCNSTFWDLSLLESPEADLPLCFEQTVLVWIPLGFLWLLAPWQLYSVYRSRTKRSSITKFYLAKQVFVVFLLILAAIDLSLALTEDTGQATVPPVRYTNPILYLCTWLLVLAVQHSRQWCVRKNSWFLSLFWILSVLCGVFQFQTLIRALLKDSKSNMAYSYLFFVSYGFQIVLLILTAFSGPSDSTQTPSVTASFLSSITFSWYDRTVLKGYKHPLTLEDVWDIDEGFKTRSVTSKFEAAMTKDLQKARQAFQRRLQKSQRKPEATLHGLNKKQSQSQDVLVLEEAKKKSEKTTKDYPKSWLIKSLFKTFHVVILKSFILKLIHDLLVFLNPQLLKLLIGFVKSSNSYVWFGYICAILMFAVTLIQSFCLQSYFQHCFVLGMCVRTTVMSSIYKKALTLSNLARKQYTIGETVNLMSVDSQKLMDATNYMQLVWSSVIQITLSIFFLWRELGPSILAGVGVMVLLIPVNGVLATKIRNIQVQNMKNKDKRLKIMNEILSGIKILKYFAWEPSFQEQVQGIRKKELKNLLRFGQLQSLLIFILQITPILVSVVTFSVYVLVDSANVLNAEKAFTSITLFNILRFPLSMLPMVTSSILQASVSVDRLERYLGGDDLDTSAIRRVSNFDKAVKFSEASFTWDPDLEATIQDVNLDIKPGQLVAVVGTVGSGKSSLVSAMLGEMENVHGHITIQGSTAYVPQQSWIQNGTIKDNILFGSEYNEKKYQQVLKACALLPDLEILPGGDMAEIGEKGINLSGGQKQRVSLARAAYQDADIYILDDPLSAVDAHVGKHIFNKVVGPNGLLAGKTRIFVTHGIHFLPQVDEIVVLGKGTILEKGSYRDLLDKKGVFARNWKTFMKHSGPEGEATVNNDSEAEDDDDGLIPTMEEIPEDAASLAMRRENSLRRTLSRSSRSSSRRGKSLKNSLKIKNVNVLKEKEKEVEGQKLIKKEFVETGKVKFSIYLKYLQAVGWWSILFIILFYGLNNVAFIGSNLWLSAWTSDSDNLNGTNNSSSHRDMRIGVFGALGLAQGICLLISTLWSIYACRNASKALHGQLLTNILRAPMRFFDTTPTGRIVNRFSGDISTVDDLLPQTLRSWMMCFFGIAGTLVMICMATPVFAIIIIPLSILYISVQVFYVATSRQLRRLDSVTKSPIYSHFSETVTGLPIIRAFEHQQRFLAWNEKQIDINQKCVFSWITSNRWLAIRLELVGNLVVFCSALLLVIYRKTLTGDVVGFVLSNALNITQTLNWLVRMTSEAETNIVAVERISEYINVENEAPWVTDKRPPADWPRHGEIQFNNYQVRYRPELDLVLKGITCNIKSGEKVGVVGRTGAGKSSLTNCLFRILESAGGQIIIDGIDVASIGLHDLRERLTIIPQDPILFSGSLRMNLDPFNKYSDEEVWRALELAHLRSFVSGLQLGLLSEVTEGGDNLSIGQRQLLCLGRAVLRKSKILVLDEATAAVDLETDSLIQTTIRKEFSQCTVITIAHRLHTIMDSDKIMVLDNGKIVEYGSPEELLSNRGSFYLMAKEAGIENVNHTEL

In the case of OC[C@H]1O[C@@H](Oc2c(O)cc(O)cc2C=Cc2ccc(O)cc2)[C@H](O)[C@@H](O)[C@@H]1O [2,3,5,4’-tetrahydroxystilbene-2-β-D-glucoside], the “Effect on emodin absorption” value (Caco-2 cell) is given as “could enhance”.
In the case of Cc1cc(O)c2c(c1)C(=O)c1cc(O)cc(O)c1C2=O [Emodin, 1,3,8trihydroxy-6-methylanthraquinone], the “Regioselectivity of intestinal absorption rates” value ([1]; duodenum, jejunum, ileum, colon, 9.25, 18.5 and 37 μM) is reported as “no regioselectivity”, the “Papp values from M-S” value ([1]; rat intestinal segments, lowest concentration (9.25 μM)) is reported as “very low” and the “Er (efflux ratio) of emodin” value ([1]; rat jejunum, at all three concentrations 9.25, 18.5 and 37 μM) is reported as “more than five”. The “Change of emodin absorption (M-S) with verapamil” value (P-gp [2]) was “markedly increase”, the “Change of emodin efflux ratio with verapamil” value (P-gp [2]) was “decrease” and the “Change of emodin Papp from mucosal to serosal side with MK571” value (MRP2) was “significantly increased”. The “Change of emodin efflux ratio with MK571” value (MRP2) was “decreased”, the “Substrate of MRP3” value (MRP3 [3]; Ussing chamber) was “might not be a substrate” and the “Change of emodin transport with benzbromarone” value (MRP3 [3]; benzbromarone 470 μM on mucosal side) was “no significant differences”. For the same compound, the “Effect of emodin on P-gp function” value (P-gp [4]) was “could enhance P-gp function”, the “Effect of emodin on MRP3 function” value (MRP3 [5]; emodin 185, 370, 740 μM, teniposide as substrate) was “might be an MRP3 inhibitor” and the “Substrate of P-gp” value (P-glycoprotein (P-gp)) was “substrate”. The “Substrate of MRP2” value [6] was “substrate”.
COc1cc([C@@H]2c3cc4c(cc3[C@@H](O[C@@H]3O[C@@H]5CO[C@@H](c6cccs6)O[C@H]5[C@H](O)[C@H]3O)[C@H]3COC(=O)[C@H]23)OCO4)cc(OC)c1O [Teniposide] showed a Papp (MRP3 [7]; pH 6.5, rat colon, without inhibitor, read-out: Papp M-S, control) of 16 ± 11.1 ×10⁻⁶ cm/s, a Papp (MRP3 [7]; pH 6.5, rat colon, without inhibitor, read-out: Papp S-M, control) of 21.3 ± 11.9 ×10⁻⁶ cm/s and a Papp (MRP3 [7]; pH 6.5, rat ileum, without inhibitor, read-out: Papp M-S, control) of 12.6 ± 7.7 ×10⁻⁶ cm/s. For the same compound, the Papp (MRP3 [7]; pH 6.5, rat ileum, without inhibitor, read-out: Papp S-M, control) was 24.5 ± 10 ×10⁻⁶ cm/s, the Papp (MRP3 [7]; pH 6.5, rat jejunum, without inhibitor, read-out: Papp M-S, control) was 14 ± 4.4 ×10⁻⁶ cm/s and the Papp (MRP3 [7]; pH 6.5, rat jejunum, without inhibitor, read-out: Papp S-M, control) was 33.5 ± 14 ×10⁻⁶ cm/s. The Papp (MRP3 [7]; pH 6.5, with benzbromarone 470 μM, mucosal side, rat colon, with benzbromarone 470 μM on mucosal side, read-out: Papp M-S, with inhibitor) was 28.3 ± 8.4 ×10⁻⁶ cm/s, the Papp (MRP3 [7]; pH 6.5, with benzbromarone 470 μM, mucosal side, rat colon, with benzbromarone 470 μM on mucosal side, read-out: Papp S-M, with inhibitor) was 8.3 ± 1.9 ×10⁻⁶ cm/s and the Papp (MRP3 [7]; pH 6.5, with benzbromarone 470 μM, mucosal side, rat ileum, with benzbromarone 470 μM on mucosal side, read-out: Papp M-S, with inhibitor) was 28 ± 19.5 ×10⁻⁶ cm/s. For the same compound, the Papp (MRP3 [7]; pH 6.5, with benzbromarone 470 μM, mucosal side, rat ileum, with benzbromarone 470 μM on mucosal side, read-out: Papp S-M, with inhibitor) was 10.3 ± 2.9 ×10⁻⁶ cm/s, the Papp (MRP3 [7]; pH 6.5, with benzbromarone 470 μM, mucosal side, rat jejunum, with benzbromarone 470 μM on mucosal side, read-out: Papp M-S, with inhibitor) was 37.2 ± 9.7 ×10⁻⁶ cm/s and the Papp (MRP3 [7]; pH 6.5, with benzbromarone 470 μM, mucosal side, rat jejunum, with benzbromarone 470 μM on mucosal side, read-out: Papp S-M, with inhibitor) was 13.1 ± 6.4 ×10⁻⁶ cm/s. The “Change of Papp from S-M and Er of teniposide in the presence of emodin” value (MRP3 [5]; teniposide 60 μM, emodin 185, 370, 740 μM) was “remarkably decreased”, the Papp at 60 μM (MRP3 [5]; pH 6.5, teniposide 60 μM, without emodin, read-out: Papp M-S, control) was 69.4 ± 17.5 ×10⁻⁶ cm/s and the Papp at 60 μM (MRP3 [5]; pH 6.5, teniposide 60 μM, without emodin, read-out: Papp S-M, control) was 81.8 ± 15.9 ×10⁻⁶ cm/s. For the same compound, the Papp at 60 μM (MRP3 [5]; pH 6.5, with emodin 185 μM on mucosal side, teniposide 60 μM, emodin 185 μM on mucosal side, read-out: Papp M-S in the presence of emodin) was 63.2 ± 5.9 ×10⁻⁶ cm/s, the Papp at 60 μM (MRP3 [5]; pH 6.5, with emodin 185 μM on mucosal side, teniposide 60 μM, emodin 185 μM on mucosal side, read-out: Papp S-M in the presence of emodin) was 56.1 ± 5.7 ×10⁻⁶ cm/s and the Papp at 60 μM (MRP3 [5]; pH 6.5, with emodin 370 μM on mucosal side, teniposide 60 μM, emodin 370 μM on mucosal side, read-out: Papp M-S in the presence of emodin) was 52.5 ± 7.3 ×10⁻⁶ cm/s. The Papp at 60 μM (MRP3 [5]; pH 6.5, with emodin 370 μM on mucosal side, teniposide 60 μM, emodin 370 μM on mucosal side, read-out: Papp S-M in the presence of emodin) was 31.2 ± 13.2 ×10⁻⁶ cm/s, the Papp at 60 μM (MRP3 [5]; pH 6.5, with emodin 740 μM on mucosal side, teniposide 60 μM, emodin 740 μM on mucosal side, read-out: Papp M-S in the presence of emodin) was 91.1 ± 27.3 ×10⁻⁶ cm/s and the Papp at 60 μM (MRP3 [5]; pH 6.5, with emodin 740 μM on mucosal side, teniposide 60 μM, emodin 740 μM on mucosal side, read-out: Papp S-M in the presence of emodin) was 41.1 ± 6.2 ×10⁻⁶ cm/s.
For O=C(/C=C/C=C/c1ccc2c(c1)OCO2)N1CCCCC1 [piperine], the “Effect on glucuronidation metabolism of emodin” value [8] is listed as “inhibited” and the “Effect on in vivo bioavailability of emodin” value [8] is listed as “significantly improved”.
